In patent publication US20250281572A1, “COMPOSITIONS AND METHODS FOR TREATING AND PREVENTING METABOLIC DISORDERS” (The Johns Hopkins University, priority 2022, published 2025):
No end group written: not given here.

Legend:
AMPKα1 [1] = assay: AMPK phosphorylation in cAMP-treated Hepa1-6 cells; type: cell-based; conditions: Hepa1-6 cells with cAMP (0.2 mM)
[2] = test system: T1, peptide a1m (TPQRSGSISNYRSCQR)
T1 sequence: TPQRSGSISNYRSCQR

[3] = target: AMPKα1 (AMP-activated protein kinase catalytic subunit alpha 1), FLAG-tagged, wild type (UniProt Q13131)
Target sequence in this assay (Q13131 whole entry, looked up, tested part not stated): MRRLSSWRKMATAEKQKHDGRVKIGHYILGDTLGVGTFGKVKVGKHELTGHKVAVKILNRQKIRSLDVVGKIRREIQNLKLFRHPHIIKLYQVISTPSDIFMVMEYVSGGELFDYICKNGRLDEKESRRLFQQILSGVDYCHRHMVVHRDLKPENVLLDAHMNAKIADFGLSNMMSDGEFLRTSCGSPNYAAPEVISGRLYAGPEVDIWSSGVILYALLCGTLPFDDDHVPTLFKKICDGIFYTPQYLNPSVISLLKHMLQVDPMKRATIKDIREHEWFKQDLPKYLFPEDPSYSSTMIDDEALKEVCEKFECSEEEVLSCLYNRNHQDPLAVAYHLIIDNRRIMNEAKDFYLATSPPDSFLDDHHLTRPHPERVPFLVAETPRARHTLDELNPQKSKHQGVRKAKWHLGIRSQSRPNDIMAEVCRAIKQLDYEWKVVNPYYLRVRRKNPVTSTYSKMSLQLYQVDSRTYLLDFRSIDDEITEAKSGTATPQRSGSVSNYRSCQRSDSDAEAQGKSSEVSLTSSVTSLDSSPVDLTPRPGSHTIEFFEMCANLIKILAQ

[4] = target: AMPKα1 (AMP-activated protein kinase catalytic subunit alpha 1), FLAG-tagged, wild type (UniProt Q13131); assay: cell-based or functional assay
Target sequence in this assay (Q13131 whole entry): as the sequence (Q13131 whole entry, looked up, tested part not stated) above

[5] = target: AMPKα2 phosphorylated at S491 (UniProt P54646)
Chain of AMPKα2 phosphorylated at S491 (P54646 whole entry, looked up): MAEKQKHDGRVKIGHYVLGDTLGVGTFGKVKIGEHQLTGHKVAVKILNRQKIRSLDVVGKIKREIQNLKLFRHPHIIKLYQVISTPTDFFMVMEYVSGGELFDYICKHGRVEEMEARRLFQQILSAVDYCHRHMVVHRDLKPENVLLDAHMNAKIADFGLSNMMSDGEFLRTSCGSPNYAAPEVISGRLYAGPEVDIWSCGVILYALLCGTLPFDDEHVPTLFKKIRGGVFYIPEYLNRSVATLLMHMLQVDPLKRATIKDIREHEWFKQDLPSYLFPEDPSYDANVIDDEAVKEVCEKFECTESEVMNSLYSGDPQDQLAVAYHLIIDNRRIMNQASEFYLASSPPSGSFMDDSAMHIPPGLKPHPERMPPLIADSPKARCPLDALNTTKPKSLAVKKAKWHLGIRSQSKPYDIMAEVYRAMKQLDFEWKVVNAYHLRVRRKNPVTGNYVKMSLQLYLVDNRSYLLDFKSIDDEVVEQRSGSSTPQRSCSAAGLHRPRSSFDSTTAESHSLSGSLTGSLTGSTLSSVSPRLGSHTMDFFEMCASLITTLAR

[6] = target: AMPKα1 phosphorylated at S496 (UniProt Q13131)
Chain of AMPKα1 phosphorylated at S496 (Q13131 whole entry, looked up): as the sequence (Q13131 whole entry, looked up, tested part not stated) above

[7] = target: AMPKα2 (AMP-activated protein kinase catalytic subunit alpha 2) (UniProt P54646)
Chain of AMPKα2 (AMP-activated protein kinase catalytic subunit alpha 2) (P54646 whole entry, looked up, tested part not stated): as the sequence (P54646 whole entry, looked up) above

AMPKα2 = assay: In vitro phosphorylation assay of AMPKα2 at S491 by PKA; type: biochemical
Procedure: (§1) In vitro phosphorylation assays. Purified AMPKα1 protein was incubated with 1 μg of PKA catalytic subunit (Millipore) or 0.54 ug of AKT1 (abcam), 1× kinase buffer (Cell signaling) and 0.2 mM ATP at room temperature for the indicated time. To test the phosphorylation of PKA-mediated AMPK phosphorylation at S496/491 on a subunit phosphorylation at T172, AMPKα subunits were phosphorylated at S496/491 by PKA at 37° C. for 1 h, followed by the addition of 25 ng LKB1-STRAD-MO25 (Millipore), then incubated at room temperature for 30 min.

AMPKα1 [8] = assay: In vitro phosphorylation assay of AMPKα1 at S496 by PKA or AKT; type: biochemical; conditions: in vitro assays
Procedure: as §1

[9] = Viable MCF-7 breast cancer cells; type: cell-based; conditions: 500 μM; read-out: reduction of viable MCF-7 cancer cells
[10] = test system: human colon cancer Caco2 cells; assay: Growth of colon cancer Caco2 cells; type: cell-based; conditions: FIG. 25b
primary hepatocytes = conditions: 10 μM, 16 h, versus control peptide TAT
Procedure: Primary hepatocytes prepared from elderly mice (78 weeks of age) were treated with 10 μM of control peptide TAT or Pa496m for 16 h.

[11] = test system: human primary hepatocytes
HFD-fed mice = assay: Intraperitoneal treatment of HFD-fed mice; type: in vivo, mouse; conditions: intraperitoneal 10 nMole/g/day for 5 days, then 15 nMole/g/day for another 5 days

Chain of AMPKβ1, FLAG-tagged (Q9R078 2-270): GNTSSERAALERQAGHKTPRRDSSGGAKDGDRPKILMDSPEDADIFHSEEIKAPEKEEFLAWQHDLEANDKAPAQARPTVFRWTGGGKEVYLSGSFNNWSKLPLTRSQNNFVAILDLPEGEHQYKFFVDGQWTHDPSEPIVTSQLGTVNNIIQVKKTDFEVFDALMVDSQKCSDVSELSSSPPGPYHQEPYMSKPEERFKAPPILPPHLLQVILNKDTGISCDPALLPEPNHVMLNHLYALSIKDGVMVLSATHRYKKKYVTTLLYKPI
Chain of AMPKγ1, FLAG-tagged (O54950 whole entry): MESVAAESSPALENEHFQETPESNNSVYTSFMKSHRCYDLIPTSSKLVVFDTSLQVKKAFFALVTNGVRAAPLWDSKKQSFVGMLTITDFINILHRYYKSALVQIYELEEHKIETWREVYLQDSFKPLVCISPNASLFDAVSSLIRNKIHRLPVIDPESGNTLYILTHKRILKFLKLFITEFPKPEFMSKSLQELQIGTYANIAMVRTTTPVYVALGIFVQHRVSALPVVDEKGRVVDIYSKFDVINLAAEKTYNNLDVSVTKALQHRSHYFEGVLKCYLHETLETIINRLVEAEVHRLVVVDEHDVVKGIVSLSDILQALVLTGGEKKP

In the case of `O=S(=O)(NCCNC/C=C/c1ccc(Br)cc1)c1cccc2cnccc12` [Peptide H89], the “phosphorylation of AMPKαT172 and MFF” value (AMPKα1 [1]) is reported as “reversed the negative effect of cAMP”.

With AKT1 (abcam) the “in vitro phosphorylation of AMPKα1 at S496 by AKT” value [2] was “this peptide could effectively antagonize PKA- or AKT-mediated phosphorylation of AMPKα1 at S496 in in vitro assays” and the “in vitro phosphorylation of AMPKα1 at S496” value [3] was “PKA- or AKT-mediated phosphorylation of AMPKα1 at S496 in in vitro assays”.

Work on AMPKβ1, FLAG-tagged yielded an AMPK enzymatic activity (% of enzymatic activity lost) [4] of 80.

With AMPKγ1, FLAG-tagged the AMPK enzymatic activity (% of enzymatic activity lost) [4] was 80.

With LKB1-STRAD-MO25 (Millipore) the “in vitro phosphorylation of AMPKα at T172” value [5] was “the phosphorylation at these sites decreased the phosphorylation of AMPKα at T172 by upstream kinase LKB1” and the “in vitro phosphorylation of AMPKα at T172” value [6] was “the phosphorylation at these sites decreased the phosphorylation of AMPKα at T172 by upstream kinase LKB1”.

With PKA catalytic subunit (Millipore) the “in vitro phosphorylation of AMPKα1 at S496 by PKA” value [2] was “this peptide could effectively antagonize PKA- or AKT-mediated phosphorylation of AMPKα1 at S496 in in vitro assays”, the “in vitro phosphorylation of AMPKα2 at S491 by PKA” value [2] was “this targeting-peptide a1m could antagonize the phosphorylation of AMPKα2 at S491 by PKA as well” and the “in vitro phosphorylation of AMPKα1 at S496” value [3] was “PKA can directly phosphorylate AMPKα1 at S496”. The “in vitro phosphorylation of AMPKα2 at S491” value [7] was “PKA can directly phosphorylate AMPKα1 at S496 (FIGS. 3a, b) and AMPKα2 at S491 (FIG. 3c)”.

In the case of “TPQRSGSISNYRSCQR [a1m, corresponds to mouse AMPKα1 from 490-505 a.a]”, the “phosphorylation of AMPKα2 at S491 by PKA” value (AMPKα2) is reported as “could antagonize” and the “PKA- or AKT-mediated phosphorylation of AMPKα1 at S496” value (AMPKα1 [8]) is reported as “effectively antagonize”.

For YGRKKRRQRRRTPQRSCSAAGLHR [Pa2-491], the cytotoxicity [9] was > 90% and the “growth of colon carcinoma Caco2 cells” value [10] was “could inhibit”.

With YGRKKRRQRRRTPQRSGSISNYRSCQR [Pa496m] the cytotoxicity [9] was > 90% and the “fat content in hepatocytes” value (primary hepatocytes) was “significantly decreased”.

In the case of YGRKKRRQRRRTPQRSGSVSNYRSCQR [Pa496h], the “decrease of hepatocytes' viability” value [11] is reported as 19.8%, the “viability of human primary hepatocytes” value ([11]; 100 μM) is reported as “did not significantly affected” and the cytotoxicity [9] is reported as > 90%. The “growth of colon carcinoma Caco2 cells” value [10] was “could inhibit” and the “injury to the liver” value (HFD-fed mice) was “without causing injury to the liver”.
